What follows are compounds tested against T1, human Nav1.8 (Homo sapiens, UniProt Q9Y5Y9) (assay: Nav1.8 sodium channels assay, QPatch 48 HTX electrophysiology in HEK293-Nav1.8 cells). Conditions: at least one set of experimental runs; read-out: average pIC50 value against Nav1.8 (converted).
T1 construct: expressed in transfected cells; host or cells: HEK293 (HEK293-Nav1.8)
T1 sequence (Q9Y5Y9 whole entry): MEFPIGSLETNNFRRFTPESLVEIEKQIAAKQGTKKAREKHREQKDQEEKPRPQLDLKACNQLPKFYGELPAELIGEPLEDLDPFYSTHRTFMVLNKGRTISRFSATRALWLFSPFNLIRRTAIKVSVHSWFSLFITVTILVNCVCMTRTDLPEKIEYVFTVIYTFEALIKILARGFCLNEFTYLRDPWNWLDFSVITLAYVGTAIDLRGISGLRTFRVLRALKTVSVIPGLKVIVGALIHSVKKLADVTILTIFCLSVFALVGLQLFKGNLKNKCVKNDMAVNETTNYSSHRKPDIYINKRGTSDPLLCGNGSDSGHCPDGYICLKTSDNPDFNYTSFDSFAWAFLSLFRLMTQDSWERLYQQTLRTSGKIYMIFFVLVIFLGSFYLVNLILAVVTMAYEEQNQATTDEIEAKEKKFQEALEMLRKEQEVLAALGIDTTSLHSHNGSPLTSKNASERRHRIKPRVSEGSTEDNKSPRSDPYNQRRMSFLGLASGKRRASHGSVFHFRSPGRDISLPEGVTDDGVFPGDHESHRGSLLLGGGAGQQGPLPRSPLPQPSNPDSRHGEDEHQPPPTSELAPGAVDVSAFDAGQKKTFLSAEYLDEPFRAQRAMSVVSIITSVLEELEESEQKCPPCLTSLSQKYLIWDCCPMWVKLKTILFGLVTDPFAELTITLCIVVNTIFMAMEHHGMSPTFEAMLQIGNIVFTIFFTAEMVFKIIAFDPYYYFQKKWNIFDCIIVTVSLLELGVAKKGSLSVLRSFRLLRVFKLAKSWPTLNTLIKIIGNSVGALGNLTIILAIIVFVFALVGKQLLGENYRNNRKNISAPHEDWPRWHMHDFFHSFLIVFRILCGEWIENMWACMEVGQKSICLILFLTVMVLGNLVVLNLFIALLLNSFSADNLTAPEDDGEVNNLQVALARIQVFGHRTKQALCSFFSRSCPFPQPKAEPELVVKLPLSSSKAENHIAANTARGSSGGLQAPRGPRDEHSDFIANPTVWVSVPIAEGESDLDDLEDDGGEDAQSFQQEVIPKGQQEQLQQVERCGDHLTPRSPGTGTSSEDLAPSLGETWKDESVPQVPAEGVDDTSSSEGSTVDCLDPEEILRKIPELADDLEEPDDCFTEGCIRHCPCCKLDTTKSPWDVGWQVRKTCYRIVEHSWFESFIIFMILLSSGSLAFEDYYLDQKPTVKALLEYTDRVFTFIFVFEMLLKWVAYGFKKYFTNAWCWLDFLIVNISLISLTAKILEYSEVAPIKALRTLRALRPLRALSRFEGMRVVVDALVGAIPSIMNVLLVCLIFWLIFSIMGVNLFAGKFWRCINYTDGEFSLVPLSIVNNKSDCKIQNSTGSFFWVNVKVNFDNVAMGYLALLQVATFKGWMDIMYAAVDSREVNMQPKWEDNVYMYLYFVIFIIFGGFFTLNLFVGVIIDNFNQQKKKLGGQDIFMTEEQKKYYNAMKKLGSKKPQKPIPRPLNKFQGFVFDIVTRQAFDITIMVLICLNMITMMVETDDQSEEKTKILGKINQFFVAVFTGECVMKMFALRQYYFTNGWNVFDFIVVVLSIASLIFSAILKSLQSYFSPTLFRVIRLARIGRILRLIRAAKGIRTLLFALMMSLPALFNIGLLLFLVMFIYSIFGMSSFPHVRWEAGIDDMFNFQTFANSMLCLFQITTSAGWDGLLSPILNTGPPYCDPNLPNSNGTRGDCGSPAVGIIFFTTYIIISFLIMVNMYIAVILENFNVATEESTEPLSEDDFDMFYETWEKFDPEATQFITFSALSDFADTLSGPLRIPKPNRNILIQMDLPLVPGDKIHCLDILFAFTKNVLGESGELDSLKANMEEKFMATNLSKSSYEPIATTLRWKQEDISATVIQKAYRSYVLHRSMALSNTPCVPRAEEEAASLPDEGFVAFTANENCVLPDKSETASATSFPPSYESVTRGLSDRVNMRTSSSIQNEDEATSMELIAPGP
T1 sequence (Q07699 19-218 partner): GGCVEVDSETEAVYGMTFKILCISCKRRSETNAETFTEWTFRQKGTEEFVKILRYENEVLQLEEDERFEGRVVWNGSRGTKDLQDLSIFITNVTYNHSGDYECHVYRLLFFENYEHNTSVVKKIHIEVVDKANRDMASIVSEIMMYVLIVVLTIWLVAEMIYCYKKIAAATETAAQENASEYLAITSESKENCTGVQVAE
Format: cell-based
Description: Human embryonic kidney […] cells (HEK293) expressing human Nav1.8, human Navβ1 and human TREK1 (HEK293-Nav1.8) were grown at 37° C., 5% CO2 in 150 cm^2 flasks. HEK293-Nav1.8 were passaged every 2-3 days when confluency reached 80-90% in to T175 cell culture flasks.
Pharmacological assessment of the invention was performed using HEK293-Nav1.8 in combination with an assay developed on the QPatch 48 HTX electrophysiological system. HEK293-Nav1.8 were prepared on the day of use by removing culture media, washing in DPBS, adding Accutase (2 ml to cover the surface, aspirate 1 ml then 1.5 min at 37° C.) followed by addition of CHO-SFM II to stop the enzyme digestion and in order to obtain a suspension of 3×10^6 cell/mL.
The invention was prepared in an extracellular solution of the following composition (in mM) NaCl 145, KCl 4, CaCl2 2, MgCl 2, HEPES 1, Glucose 10, pH 7.4 with NaOH Osmolality 300 mOsM/L. The intracellular solution was used of the following composition (in mM) CsF 115, CsCl 20, NaCl 5, EGTA 10, HEPES 10, Sucrose 20, pH 7.2 with CsOH Osmolality 310 mOsm/L.
Utilizing the voltage-clamp mode in the QPatch 48 HTX system a half inactivation state voltage protocol (V1/2) was used to determine pharmacological activity of the invention at Nav1.8 ion channels. A V1/2 protocol was utilized with the following voltage steps: a holding voltage of −100 mV was established followed by a 20 ms voltage step to 0 mV (P1), followed by an inactivating voltage step at −46 mV for 8 seconds, followed by a step to −100 mV for 20 ms, before a 20 ms step to 0 mV (P2) before returning to the holding voltage of −100 mV. This voltage protocol was repeated at a frequency of 0.07 Hz., current magnitude was quantified at the P2 step throughout the recording. Inhibition of the measured current amplitude with the invention was analyzed by fitting a 6-8 point dose-response curve allowing determination of the fifty percent inhibition concentration (IC50). Within the QPatch HTX software, P2 current was normalized according to measurements made at baseline after compound and after positive reference compound and fit to the following equation: […]
To assess current run-down over the course of the experiment vehicle-only wells were utilized and the normalized current with vehicle-only (n.IVEH) was determined. To correct the compound response for run-down, the currents were correct according the following formula: […]
Compounds of the invention are tested for activity against Nav1. 8 sodium channels in the above assay.
For `Cc1[nH]c(=O)ccc1N1CN([C@H]2CC[C@H](F)C2)c2cc(C(F)(F)F)ccc2C1=O` (racemic) [Example 208, 1-((1S,3S)-3-fluorocyclopentyl)-3-(2-methyl-6-oxo-1,6-dihydropyridin-3-yl)-7-(trifluoromethyl)-2,3-dihydroquinazolin-4(1H)-one and 1-((1R,3R)-3-fluorocyclopentyl)-3-(2-methyl-6-oxo-1,6-dihydropyridin-3-yl)-7-(trifluoromethyl)-2.3-dihydroquinazolin-4(1H)-one], the IC50 was 794 to 7940 nM. Work on `Cc1[nH]c(=O)ccc1N1CN([C@@H]2CCCC[C@H]2C)c2cc(C(F)(F)F)ccc2C1=O` (racemic) [Example 278, Mixture of 3-(2-Methyl-6-oxo-1,6-dihydropyridin-3-yl)-1-((1R,2R)-2-methylcyclohexyl)-7-(trifluoromethyl)-2,3-dihydroquinazolin-4(1H)-one and 3-(2-Methyl-6-oxo-1,6-dihydropyridin-3-yl)-1-((1S,2S)-2-methylcyclohexyl)-7-(trifluoromethyl)-2,3-dihydroquinazolin-4(1H)-one] yielded an IC50 of at most 100 nM. Work on `Cc1cc(F)ccc1N1c2cc(C(F)(F)F)ccc2C(=O)N(c2ccc(=O)[nH]c2)C1C` (single isomer, unassigned) [Example 285] yielded an IC50 of 794 to 7940 nM. With `Cc1cc(=O)[nH]c(C)c1N1CN(c2ccc(F)cc2C(C)C)c2cc(C(F)(F)F)ccc2C1=O` (single isomer, unassigned) [Example 289, 3-(2,4-Dimethyl-6-oxo-1,6-dihydropyridin-3-yl)-1-(4-fluoro-2-isopropylphenyl)-7-(trifluoromethyl)-2,3-dihydroquinazolin-4(1H)-one] the IC50 was 794 to 7940 nM. For `Cc1cc(=O)[nH]c(C)c1N1CN(c2ccc(F)cc2C(C)C)c2cc(C(F)(F)F)ccc2C1=O` (single isomer, unassigned) [Example 290, 3-(2,4-dimethyl-6-oxo-1,6-dihydropyridin-3-yl)-1-(4-fluoro-2-isopropylphenyl)-7-(trifluoromethyl)-2,3-dihydroquinazolin-4(1H)-one], the IC50 was 126 to 631 nM. `Cc1cc(=O)[nH]c(C)c1N1CN(c2ccc(F)cc2C(C)C)c2ccc(Cl)cc2C1=O` (single isomer, unassigned) [Example 291, 6-Chloro-3-(2,4-dimethyl-6-oxo-1,6-dihydropyridin-3-yl)-1-(4-fluoro-2-isopropylphenyl)-2,3-dihydroquinazolin-4(1H)-one] gave an IC50 of 794 to 7940 nM. `Cc1cc(=O)[nH]c(C)c1N1CN(c2ccc(F)cc2C(C)C)c2ccc(Cl)cc2C1=O` (single isomer, unassigned) [Example 292, 6-Chloro-3-(2,4-dimethyl-6-oxo-1,6-dihydropyridin-3-yl)-1-(4-fluoro-2-isopropylphenyl)-2,3-dihydroquinazolin-4(1H)-one] was tested, and the IC50 was 126 to 631 nM. In the case of `Cc1[nH]c(=O)ccc1N1CN(c2ccc(F)cc2C(C)(C)C)c2ccc(Cl)cc2C1=O` (single isomer, unassigned) [Example 293, 1-(2-(tert-Butyl)-4-fluorophenyl)-6-chloro-3-(2-methyl-6-oxo-1,6-dihydropyridin-3-yl)-2,3-dihydroquinazolin-4(1H)-one], the IC50 is reported as 126 to 631 nM. In the case of `Cc1[nH]c(=O)ccc1N1CN(c2ccc(F)cc2C(C)(C)C)c2ccc(Cl)cc2C1=O` (single isomer, unassigned) [Example 294, 1-(2-(tert-Butyl)-4-fluorophenyl)-6-chloro-3-(2-methyl-6-oxo-1,6-dihydropyridin-3-yl)-2,3-dihydroquinazolin-4(1H)-one], the IC50 is reported as at most 100 nM. `Cc1[nH]c(=O)ccc1N1CN(c2ccc(F)cc2C(C)(C)C)c2cc(C(F)(F)F)ccc2C1=O` (single isomer, unassigned) [Example 295, 1-(2-(tert-butyl)-4-fluorophenyl)-3-(2-methyl-6-oxo-1,6-dihydropyridin-3-yl)-7-(trifluoromethyl)-2,3-dihydroquinazolin-4(1H)-one] showed an IC50 of 794 to 7940 nM. With `Cc1[nH]c(=O)ccc1N1CN(c2ccc(F)cc2C(C)(C)C)c2cc(C(F)(F)F)ccc2C1=O` (single isomer, unassigned) [Example 296, 1-(2-(tert-butyl)-4-fluorophenyl)-3-(2-methyl-6-oxo-1,6-dihydropyridin-3-yl)-7-(trifluoromethyl)-2,3-dihydroquinazolin-4(1H)-one] the IC50 was at most 100 nM. With `Cc1cc(F)ccc1N1CN(c2ccc(=O)n(C)c2)C(=O)c2ccc(C(F)(F)F)cc21` [Example 1] the IC50 was 794 to 7940 nM. In the case of `Cc1cc(F)ccc1N1CN(c2cccnc2)C(=O)c2ccc(C(F)(F)F)cc21` [Example 2], the IC50 is reported as 794 to 7940 nM. With `COc1ncc(N2CN(c3ccc(F)cc3C)c3cc(C(F)(F)F)ccc3C2=O)cn1` [Example 3, 1-(4-fluoro-2-methylphenyl)-3-(2-methoxypyrimidin-5-yl)-7-(trifluoromethyl)-2,3-dihydroquinazolin-4(1H)-one] the IC50 was 794 to 7940 nM. `Cc1cc(F)ccc1N1CN(c2ccnn2C)C(=O)c2cc(C(F)(F)F)ccc21` [Example 4, 1-(4-fluoro-2-methylphenyl)-3-(1-methyl-1H-pyrazol-5-yl)-6-(trifluoromethyl)-2,3-dihydroquinazolin-4(1H)-one] gave an IC50 of 126 to 631 nM. `CC(=O)Nc1cccc(N2CN(c3ccc(F)cc3C)c3cc(C(F)(F)F)ccc3C2=O)c1` [Example 5, N-(3-(1-(4-fluoro-2-methylphenyl)-4-oxo-7-(trifluoromethyl)-1,4-dihydroquinazolin-3(2H)-yl)phenyl)aceta-mide] was tested, and the IC50 was 794 to 7940 nM. With `CC(=O)Nc1ccc(N2CN(c3ccc(F)cc3C)c3cc(C(F)(F)F)ccc3C2=O)cc1` [Example 6, N-(4-(1-(4-fluoro-2-methylphenyl)-4-oxo-7-(trifluoromethyl)-1,4-dihydroquinazolin-3(2H)-yl)phenyl)aceta-mide] the IC50 was 794 to 7940 nM. For `Cc1cc(F)ccc1N1CN(c2ccc(C(N)=O)nc2)C(=O)c2c1ccc(Cl)c2F` [Example 7, 5-(6-chloro-5-fluoro-1-(4-fluoro-2-methylphenyl)-4-oxo-1,4-dihydroquinazolin-3(2H)-yl)picolinamide], the IC50 was 794 to 7940 nM. `Cc1cc(F)ccc1N1CN(c2ccnc(C(N)=O)c2)C(=O)c2c1ccc(Cl)c2F` [Example 8, 4-(6-chloro-5-fluoro-1-(4-fluoro-2-methylphenyl)-4-oxo-1,4-dihydroquinazolin-3(2H)-yl)picolinamide] showed an IC50 of 794 to 7940 nM. In the case of `COc1ccc(N2CN(c3ccc(F)cc3Br)c3ccc(C(F)(F)F)cc3C2=O)c(C)n1` [Example 9, 1-(2-bromo-4-fluorophenyl)-3-(6-methoxy-2-methylpyridin-3-yl)-6-(trifluoromethyl)-2,3-dihydroquinazolin-4(1H)-one], the IC50 is reported as 794 to 7940 nM. With `COc1ccc(N2CN(c3ccc(F)cc3C)c3cc(C(F)(F)F)ccc3C2=O)cn1` [Example 10, 1-(4-fluoro-2-methylphenyl)-3-(6-methoxypyridin-3-yl)-7-(trifluoromethyl)-2,3-dihydroquinazolin-4(1H)-one] the IC50 was 794 to 7940 nM. `Cc1cnccc1N1CN(c2ccc(OC(F)(F)F)cc2C)c2cc(F)c(Cl)cc2C1=O` [Example 11, 6-chloro-7-fluoro-1-(2-methyl-4-(trifluoromethoxy)phenyl)-3-(3-methylpyridin-4-yl)-2,3-dihydroquinazolin-4(1H)-one] showed an IC50 of 126 to 631 nM. For `CCc1cc(F)ccc1N1CN(c2ccncc2C)C(=O)c2cc(Cl)c(F)cc21` [Example 12, 6-chloro-1-(2-ethyl-4-fluorophenyl)-7-fluoro-3-(3-methylpyridin-4-yl)-2,3-dihydroquinazolin-4(1H)-one], the IC50 was 126 to 631 nM.

Source: patent US20230103791A1 (GLAXOSMITHKLINE INTELLECTUAL PROPERTY DEVELOPMENT LIMITED, priority 2019, published 2023)
